Assay results published in article PMC8290497, “Taxifolin, an Inhibitor of Sortase A, Interferes With the Adhesion of Methicillin-Resistant Staphylococcal aureus” (Frontiers in Microbiology, 2021).

Tests used:
S. aureus USA300 = experiment: Growth curve and growth rate; format: cell-based, Staphylococcus aureus
Description: A broth microdilution assay was performed to determine the minimum inhibitory concentration (MIC) of Tax for S. aureus USA300, as described elsewhere ([Sader et al., 2013]; [Delgado-Valverde et al., 2017]). A growth curve was further evaluated by adding various concentrations of Tax (0–200 μM) to a bacterial culture, then incubating until an OD600 of 0.3 had been reached. S. aureus USA300 and ΔsrtA were used as controls. The OD600 value was recorded for each sample at 1 h intervals for a total of 24 h. The growth rate between S. aureus treated with Tax and S. aureus USA300 was also calculated at each time point.
(§1) FIGURE 2 Growth curve and cytotoxicity. (A) Growth curves of S. aureus USA300 and the ΔsrtA group with different concentrations of Tax. (B) Growth rate of S. aureus USA300 and S. aureus treated with Tax (25 μM). (C) Percent cell viability of HEK293 (purple) and HepG2 (blue) cells were measured using a CCK-8 assay after incubation with Tax for 24 h.

HEK293 cells = experiment: CCK-8 cytotoxicity assay, HEK293; format: cell-based
Description: Cytotoxicity was determined using a cell counting kit-8 assay (CCK-8, US EVERBRIGHT, Suzhou, China), as described previously ([Xiao et al., 2018]). HEK293 or HepG2 cells were seeded in 96-well plates (Corning, United States) at a density of 5 × 10^4 cells/well, then incubated at 37°C in an atmosphere containing 5% CO2 for 24 h. The culture medium was then exchanged with fresh medium containing different concentrations of Tax (0–200 μM) or vehicle and incubated for an additional 24 h. CCK-8 solution (10 μL) was carefully added then incubated for 4 h in an incubator at 37°C. The OD value at 450 nm was measured to calculate cell viability.
as §1

[1] = tested on: S. aureus biofilm formation; experiment: Biofilm formation assay (crystal violet); format: cell-based, Staphylococcus aureus; conditions: coculture with 200 μM Tax, 24 h
Description: Bacterial cultures grown overnight were diluted 1:100 in BHI medium supplemented with 3% NaCl and 0.5% glucose. A 200 μL aliquot of each diluted culture was added to separate wells of a 96-well plate, to which different concentrations of Tax (25–200 μM) had been added, then incubated at 37°C for 24 h. Subsequently, the culture medium was replaced with crystal violet to stain the biofilm for 15 min. The wells were then washed thoroughly with sterile deionized PBS three times. The crystal violet stain in each well was decolorized with 200 μL absolute ethanol and then the OD595 value was recorded using a microplate reader.
(§2) FIGURE 3 Effect of SrtA inhibitor on virulence-related phenotypes in S. aureus Newman strain. (A) Impact of Tax on the ability of S. aureus to adhere to fibrinogen. (B) Biofilm formation of S. aureus in the presence of different concentrations of Tax. (C) Mature biofilms of S. aureus in the presence of different concentrations of Tax. The ΔsrtA group represented the positive control. (D) Tax affects internalization of S. aureus into A549 cells. […] The number of viable S. aureus in the cells was quantified by serial dilution on TSA agar plates. […] Error bars represent means ± SD of three replicates. *P < 0.05, **P < 0.01, ***P < 0.001 calculated with a two-tailed Student’s t-test.

[2] = tested on: internalization of S. aureus into A549 cells; experiment: Invasion assay of S. aureus into A549 cells; format: cell-based, Staphylococcus aureus; conditions: 200 μM Tax; P < 0.001
Description: A549 human lung carcinoma cells were seeded at a density of 2.5 × 10^5 per well in 24-well plates and placed in an incubator at 37°C in an atmosphere containing 5% CO2 for 20 h. Cultures of S. aureus were mixed with different concentrations of Tax then cultured at 37°C until an OD600 of 1.0 was achieved. The A549 cells were resuspended in medium and aliquots of bacterial suspension were added to each well to a total concentration of 2 × 10^7°CFU/mL. After incubation for 2 h, the invasion assay was terminated by incubation with 300 μg/mL gentamicin for 30 min. The cells were then lysed after washing and coated on a BHI agar plate. After incubation at 37°C for 12 h, the number of CFUs were counted manually.
as §2

[3] = tested on: SrtA expression in S. aureus; experiment: Western blot analysis of SrtA expression; format: cell-based, Staphylococcus aureus; conditions: 25–200 μM Tax, compared with the untreated group
Description: To evaluate the effect of Tax on SrtA expression, Tax (25–200 μM) was added to different bacterial cultures and incubated overnight at 37°C. Equal quantities of total protein from the bacterial lysates were separated by 12% SDS-PAGE then transferred to a polyvinylidene fluoride (PVDF) membrane using a transblot semidry system. Non-specific binding to the PVDF membrane was prevented by incubating in 5% bovine serum albumin (BSA) overnight at 4°C. The membranes were washed three times with PBST, agitating each time for 5 min, then incubated with rabbit polyclonal antibody (created in the laboratory) against SrtA. Following a further washing in PBST three times, the membranes were incubated with HRP-labeled goat anti-rabbit IgG (Bioworld, China) diluted 1:10,000 in antibody diluent (PBST + 1% BSA) at 37°C for 1 h. ΔsrtA or S. aureus USA300 without Tax was considered the control group. The cytoplasmic protein ClpP was analyzed as an internal control. Blots were visualized using an enhanced chemiluminescence (ECL) detection system (GE Healthcare, United Kingdom), while bands were quantified using ImageQuant TL software (GE Healthcare).
FIGURE 4 Expression of SrtA in the presence of Tax and the interaction of different concentrations of Tax with SrtA. […] Error bars represent means ± SD of three replicates. ***P < 0.001 calculated with a two-tailed Student’s t-test.

In the case of `O=C1c2c(O)cc(O)cc2OC(c2ccc(O)c(O)c2)C1O` (stereo not shown) [Tax, taxifolin], the “toxicity toward S. aureus” value (S. aureus USA300; 200 μM) is reported as “did not display toxicity”, the “effect on the growth of S. aureus” value (S. aureus USA300; at a concentration of IC50 (25 μM), P > 0.05) is reported as “no significant effect” and the “toxicity toward mammalian cells (HEK293)” value (HEK293 cells; 200 μM) is reported as “did not display toxicity”. The “cytotoxicity toward HEK293 cells” value (HEK293 cells; at 24.53 ± 0.42 μM, 24 h) was “no significant cytotoxicity”, the “biofilm biomass, % of the mass of the untreated control” value [1] was 29.91 ± 0.51% and the “number of bacteria entering A549 cells” value [2] was “reduced significantly”. For the same molecule, the “effect on SrtA expression” value [3] was “no apparent effect”.
